Measured values: EPA's ToxValDB 9.5 (doi:10.2903/j.efsa.2020.6232)

Key:
Apis mellifera = details: acute, mortality
Bibionidae = details: chronic/long-term; duration: 23 days; reproduction
Colinus virginianus = details: acute, oral, mortality
Coturnix japonica = details: reproduction developmental
Hypoaspis aculeifer = details: chronic/long-term; reproduction
Oncorhynchus mykiss = details: acute; duration: 96 hours; mortality
Pimephales promelas = details: chronic/long-term; duration: 28 days
Tagia sp. = details: chronic/long-term; reproduction
Typhlodromus pyri = test: LR50; higher = less toxic; details: mortality

Cc1ccc(-c2c(Cl)nc(C#N)n2S(=O)(=O)N(C)C)cc1
LD50 (Apis mellifera; dermal): 9.52 µg/piece
LD50 (Apis mellifera; oral, unspecified): > 31.8 µg/piece
NOEC (Bibionidae): 0.0117 mg/L
LD50 (Colinus virginianus; diet): > 1280 mg/kg-day
LD50 (Colinus virginianus): > 2000 mg/kg-day
NOAEL (Coturnix japonica): 151 mg/kg-day
NOEC (Hypoaspis aculeifer): 18.7 mg/kg
LC50 (Oncorhynchus mykiss): > 0.107 µg/mL
NOEC (Pimephales promelas): 0.09 mg/L
LD50 (Rattus norvegicus; acute, oral, mortality): > 5000 mg/kg-day
NOAEL (Rattus norvegicus; chronic, duration: 2 years, organ weight): 17 mg/kg-day
NOAEL (Rattus norvegicus; reproduction developmental, body weight): 89 mg/kg-day
NOAEL (Rattus norvegicus; subchronic, duration: 90 days, oral, organ weight): 29.5 mg/kg-day
NOEC (Tagia sp.): 2 mg/kg
LR50 (Typhlodromus pyri; acute, duration: 10 days): 256 g/ha
LR50 (Typhlodromus pyri; not reported): 80 g/ha
